Data as given in paper PMC5651819, “AtSPX1 affects the AtPHR1–DNA-binding equilibrium by binding monomeric AtPHR1 in solution” (Biochemical Journal, 2017).

Molecular target: T1, GST–AtSPX1 (Arabidopsis thaliana, UniProt Q8LBH4)
T1 construct: gene SPX1; contains degradation products and free GST
T1 sequence (Q8LBH4 1-256): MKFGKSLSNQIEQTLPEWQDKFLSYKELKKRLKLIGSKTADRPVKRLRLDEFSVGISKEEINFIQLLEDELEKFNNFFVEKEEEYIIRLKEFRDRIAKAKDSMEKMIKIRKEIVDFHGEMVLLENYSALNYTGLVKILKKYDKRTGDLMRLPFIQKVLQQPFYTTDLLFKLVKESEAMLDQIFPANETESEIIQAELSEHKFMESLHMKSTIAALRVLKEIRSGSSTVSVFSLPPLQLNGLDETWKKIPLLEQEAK
Experiment: microscale thermophoresis
Conditions: unreliable; data not shown; some Pi binding to free GST, precise affinity could not be determined

- Kd: 5 to 10 mM
SMILES: O=P(O)(O)O [Pi]
